From BindingDB's records for patent US11185100 (MARS, INCORPORATED, 2021)

Key:
[1] = target: T1, G-protein coupled receptors family 3 profile domain-containing protein (Felis catus, UniProt A0ABI7Z2I4); test: Activation of T1R1/T1R3 Receptor by Nucleotide Derivatives (alanine)
Description: The concentration of alanine is 20 mM.
Target sequence in this assay (A0ABI7Z2I4 1-770): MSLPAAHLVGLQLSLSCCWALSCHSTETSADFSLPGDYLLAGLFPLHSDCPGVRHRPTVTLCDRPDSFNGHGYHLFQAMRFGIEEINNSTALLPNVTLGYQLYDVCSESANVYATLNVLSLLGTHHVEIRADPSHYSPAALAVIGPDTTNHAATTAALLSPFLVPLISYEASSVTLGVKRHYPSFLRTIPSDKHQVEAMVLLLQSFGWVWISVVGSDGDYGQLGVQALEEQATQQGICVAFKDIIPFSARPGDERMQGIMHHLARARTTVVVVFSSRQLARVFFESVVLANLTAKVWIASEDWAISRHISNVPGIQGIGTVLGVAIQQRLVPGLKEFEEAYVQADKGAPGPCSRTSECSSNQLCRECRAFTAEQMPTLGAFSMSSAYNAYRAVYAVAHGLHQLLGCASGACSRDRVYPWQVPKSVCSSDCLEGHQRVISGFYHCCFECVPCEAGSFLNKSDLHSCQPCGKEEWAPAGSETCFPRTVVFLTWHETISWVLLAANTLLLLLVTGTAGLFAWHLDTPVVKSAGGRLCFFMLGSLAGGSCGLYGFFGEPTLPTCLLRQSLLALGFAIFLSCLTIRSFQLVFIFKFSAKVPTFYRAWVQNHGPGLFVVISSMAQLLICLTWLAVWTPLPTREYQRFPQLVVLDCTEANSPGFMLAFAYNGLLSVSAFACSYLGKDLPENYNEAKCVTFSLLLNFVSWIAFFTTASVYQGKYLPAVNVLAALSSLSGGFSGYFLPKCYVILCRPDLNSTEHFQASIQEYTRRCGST

[2] = target: T1, G-protein coupled receptors family 3 profile domain-containing protein; test: Activation of T1R1/T1R3 Receptor by Nucleotide Derivatives
Description: HEK293 cells that stably express T1R3 and inducibly express T1R1 were exposed to nucleotide derivatives alone to activate the umami receptor. Activation of the T1R1/T1R3 receptor was detected by a change in intracellular calcium levels using a calcium sensitive fluorescent dye. Cells that express T1R3 but not T1R1 were used as a control. A FLIPR Tetra or a FlexStation 3 was used for data capture.

SMILES | EC50 [1] | EC50 [2]
CC1(O)[C@](C)(n2cnc3c(N)ncnc32)O[C@](C)(COP(O)(O)=S)[C@]1(C)O (stereo partly drawn) [US11185100, TABLE 6.6] | 60 µM | 
Nc1ncnc2c1ncn2[C@@H]1O[C@H](COP(=O)(O)O)[C@@H](OP(=O)(O)O)[C@H]1O [US11185100, TABLE 7.1] |  | > 30 µM
CC1(O)[C@@](C)(COP(O)(O)=S)O[C@@](C)(n2cnc3c(N)ncnc32)[C@@]1(C)O (stereo partly drawn) [US11185100, TABLE 7.9] | 60 µM | 
